Values of other authors in patent US20240269237A1, “PHARMACEUTICAL COMPOSITION AND KIT COMPRISING AN IMMUNOMODULATORY SUBSTANCE FOR TREATING DISEASES” (ellennbe GmbH, priority 2021, published 2024).

Key:
[1] = tested on: ankylosing spondylitis (Bechterew's disease); details: for effect of earlier treatment with biologics: Patient 11, history, within half a year the biologics lost their effect; for tolerability of earlier TNF-α inhibitors: human, in vivo
perfusion of the skin = details: healthy subjects
rheumatoid arthritis = details: for adverse effects of earlier treatment: Patient 7, history, regimen of MTX and upadacitinib tried a second time

adalinumab [Humira®]
effect of earlier treatment with biologics [1]: little effect from the outset

Remicade®: TNF-α inhibitor
tolerability of earlier TNF-α inhibitors [1]: strong adverse side effects

COC(=O)c1cccnc1 [MN, methyl nicotinate]
perfusion response (perfusion of the skin; 50 μl of 20 mmol/l topically): reproducible perfusion response | time course of perfusion increase (perfusion of the skin; topical application): reaches a stable plateau phase after five minutes

etanercept [Enbrel®]
tolerability of earlier TNF-α inhibitors [1]: strong adverse side effects

CN(Cc1cnc2nc(N)nc(N)c2n1)c1ccc(C(=O)N[C@@H](CCC(=O)O)C(=O)O)cc1 [MTX, methotrexate]
adverse effects of earlier treatment (rheumatoid arthritis): severe adverse effects (tendency to fibrosis in the lungs and sinusitis)

golimumab [Simponi®]
effect of earlier treatment with biologics [1]: little effect from the outset

CC[C@@H]1CN(C(=O)NCC(F)(F)F)C[C@@H]1c1cnc2cnc3[nH]ccc3n12 [upadacitinib]
adverse effects of earlier treatment (rheumatoid arthritis): severe adverse effects (tendency to fibrosis in the lungs and sinusitis)

tocilizumab
efficacy of basic treatment (rheumatoid arthritis; Patient 7, 162 mg per week): only partially efficient

Symponi®: TNF-α inhibitor
tolerability of earlier TNF-α inhibitors [1]: strong adverse side effects
